Experiments:
facial photodamage = assay: Double-blind randomized-controlled trial of daylight PDT, efficacy in facial photodamage; type: in vivo, human
Description: (§1) A double-blind randomized-controlled trial has been conducted to determine whether daylight PDT is an efficient method for treating photodamaged skin. […] Neither the investigator nor the patient knew which agent was administered, as it was applied by a trained professional nurse. To enhance product/placebo penetration a subtle abrasion with sandpaper of the whole face was performed. Also, a sunscreen (Cetaphil Dermacontrol SPF30®) was applied to the entire sun-exposed area including the treatment area in both groups during daylight-PDT, to avoid sunburn. Efficacy was evaluated after 1 month of the third (last) daylight session.

[1] = Pulse exposure 30 min (Method A), investigation of efficacy and inflammation; type: in vivo; settings: 30 min pulse exposure vs conventional 3-hour exposure
Description: (§2) The formation of PPIX after 3 hours is seen in FIG. 8, and the relation to inflammation is seen in FIG. 9. […] The results are illustrated in Column 3 in FIGS. 4, 5, 6, and 7. […] Pain level is not changed.

[2] = Pulse time investigation (Method B), PPIX formation in healthy volunteers; type: in vivo, human; settings: PPIX formation after 3 hours; pulse times 20, 40, 60, 180 min
Description: as §2
Twenty-four healthy male volunteers of Scandinavian ancestry were included in the study (mean age 30 years, range 20-51). A treatment area was selected on the inside of both forearms of the volunteer. Each treatment area was divided into four minor treatment fields of the size 2×5 cm with at least 3 cm between each field using a prefabricated flexible template. In order to imitate skin lesions all fields were tape stripped 10 times with occlusive dressing before treatment (Tegaderm™ Roll, 3M, Glostrup, Denmark). […]
All fields were covered with light-impermeable, occlusive dressing. […] During and after illumination pain was recorded. […]
5-MAL-induced PpIX fluorescence was depicted non-invasively using a fluorescence camera (Medeikonos AB, Gothenburg, Sweden). The amount of PpIX fluorescence was calculated from the photographs by the program MatLab® (MatLab®, MathWorks, Natic, US). The amount of fluorescence was measured before tape stripping and cream application (baseline) and before and after illumination.
The photo bleaching is then the difference in PpIX fluorescence (AU) calculated from the pre and post illumination images.

[3] = Same daylight PDT trial, pain VAS and skin reactions 1 week after sessions; type: in vivo, human
Description: as §1, with “[…] Similarly, there were no statistical differences in the effects experimented by patients by patients one week after sessions, and in some of these variables no effect” for “Efficacy”, “found depending on each session (below table).” for “evaluated after 1 month of the third (last) daylight session.”

[4] = out of 30 subjects, 1 month after third daylight session
[5] = specific photodamage severity score, 1 month after third session
[6] = reaction 1 week after session 1
[7] = reaction 1 week after session 2
[8] = reaction 1 week after session 3

COC(=O)CCC(=O)CN [Metvix, methyl aminolevulinate]
facial improvement, number of subjects (facial photodamage; [4]): 14
facial success, number of subjects (facial photodamage; [4]): 11
Coarse lines: failure, % of subjects (facial photodamage; [5]): (30%)
Coarse lines: improvement, % of subjects (facial photodamage; [5]): (50%)
Coarse lines: sucess, % of subjects (facial photodamage; [5]): (20%)
Erythema: failure, % of subjects (facial photodamage; [5]): (20%)
Erythema: improvement, % of subjects (facial photodamage; [5]): (53.3%)
Erythema: sucess, % of subjects (facial photodamage; [5]): (26.7%)
Fine lines: failure, % of subjects (facial photodamage; [5]): (20%)
Fine lines: improvement, % of subjects (facial photodamage; [5]): (43.3%)
Fine lines: sucess, % of subjects (facial photodamage; [5]): (36.7%)
Mottled pigmentation: failure, % of subjects (facial photodamage; [5]): (23.3%)
Mottled pigmentation: improvement, % of subjects (facial photodamage; [5]): (60%)
Mottled pigmentation: sucess, % of subjects (facial photodamage; [5]): (16.7%)
Sallowness: failure, % of subjects (facial photodamage; [5]): (16.7%)
Sallowness: improvement, % of subjects (facial photodamage; [5]): (30%)
Sallowness: sucess, % of subjects (facial photodamage; [5]): (53.3%)
Tactile roughness: failure, % of subjects (facial photodamage; [5]): (16.7%)
Tactile roughness: improvement, % of subjects (facial photodamage; [5]): (20%)
Tactile roughness: sucess, % of subjects (facial photodamage; [5]): (63.3%)
Pain level [1]: not changed
inflammation (erythema) [1]: clearly diminishes
pulse exposure time at which PPIX concentration speeds up [2]: 20 to 40 min
Pain VAS score, mean ([3]; after session 1): 0.80
Pain VAS score, median ([3]; after session 1): (0)
Pain VAS score, mean ([3]; after session 2): 0.60
Pain VAS score, median ([3]; after session 2): (0)
Pain VAS score, mean ([3]; after session 3): 1.13
Pain VAS score, median ([3]; after session 3): (0)
Desquamation score 0, % of subjects [3, 6]: (53.3%)
Desquamation score 1, % of subjects [3, 6]: (30%)
Desquamation score 2, % of subjects [3, 6]: (16.7%)
Desquamation score 3, % of subjects [3, 6]: (0%)
Erythema score 0, % of subjects [3, 6]: (66.7%)
Erythema score 1, % of subjects [3, 6]: (26.7%)
Erythema score 2, % of subjects [3, 6]: (6.7%)
Erythema score 3, % of subjects [3, 6]: (0%)
Oedema score 0, % of subjects [3, 6]: (100%)
Oedema score 1, % of subjects [3, 6]: (0%)
Oedema score 2, % of subjects [3, 6]: (0%)
Oedema score 3, % of subjects [3, 6]: (0%)
Oozing score 0, % of subjects [3, 6]: (100%)
Oozing score 1, % of subjects [3, 6]: (0%)
Oozing score 2, % of subjects [3, 6]: (0%)
Oozing score 3, % of subjects [3, 6]: (0%)
Pigmentation score 0, % of subjects [3, 6]: (96.7) %
Pigmentation score 1, % of subjects [3, 6]: (3.3%)
Pigmentation score 2, % of subjects [3, 6]: (0%)
Pigmentation score 3, % of subjects [3, 6]: (0%)
Vesiculation score 0, % of subjects [3, 6]: (100%)
Vesiculation score 1, % of subjects [3, 6]: (0%)
Vesiculation score 2, % of subjects [3, 6]: (0%)
Vesiculation score 3, % of subjects [3, 6]: (0%)
Desquamation score 0, % of subjects [3, 7]: (50%)
Desquamation score 1, % of subjects [3, 7]: (40%)
Desquamation score 2, % of subjects [3, 7]: (10%)
Desquamation score 3, % of subjects [3, 7]: (0%)
Erythema score 0, % of subjects [3, 7]: (63.3%)
Erythema score 1, % of subjects [3, 7]: (36.7%)
Erythema score 2, % of subjects [3, 7]: (0%)
Erythema score 3, % of subjects [3, 7]: (0%)
Oedema score 0, % of subjects [3, 7]: (100%)
Oedema score 1, % of subjects [3, 7]: (0%)
Oedema score 2, % of subjects [3, 7]: (0%)
Oedema score 3, % of subjects [3, 7]: (0%)
Oozing score 0, % of subjects [3, 7]: (100%)
Oozing score 1, % of subjects [3, 7]: (0%)
Oozing score 2, % of subjects [3, 7]: (0%)
Oozing score 3, % of subjects [3, 7]: (0%)
Pigmentation score 0, % of subjects [3, 7]: (96.7%)
Pigmentation score 1, % of subjects [3, 7]: (3.3%)
Pigmentation score 2, % of subjects [3, 7]: (0%)
Pigmentation score 3, % of subjects [3, 7]: (0%)
Vesiculation score 0, % of subjects [3, 7]: (100%)
Vesiculation score 1, % of subjects [3, 7]: (0%)
Vesiculation score 2, % of subjects [3, 7]: (0%)
Vesiculation score 3, % of subjects [3, 7]: (0%)
Desquamation score 0, % of subjects [3, 8]: (50%)
Desquamation score 1, % of subjects [3, 8]: (40%)
Desquamation score 2, % of subjects [3, 8]: (10%)
Desquamation score 3, % of subjects [3, 8]: (0%)
Erythema score 0, % of subjects [3, 8]: (76.7%)
Erythema score 1, % of subjects [3, 8]: (23.3%)
Erythema score 2, % of subjects [3, 8]: (0%)
Erythema score 3, % of subjects [3, 8]: (0%)
Oedema score 0, % of subjects [3, 8]: (100%)
Oedema score 1, % of subjects [3, 8]: (0%)
Oedema score 2, % of subjects [3, 8]: (0%)
Oedema score 3, % of subjects [3, 8]: (0%)
Oozing score 0, % of subjects [3, 8]: (100%)
Oozing score 1, % of subjects [3, 8]: (0%)
Oozing score 2, % of subjects [3, 8]: (0%)
Oozing score 3, % of subjects [3, 8]: (0%)
Pigmentation score 0, % of subjects [3, 8]: (86.7%)
Pigmentation score 1, % of subjects [3, 8]: (13.3%)
Pigmentation score 2, % of subjects [3, 8]: (10%)
Pigmentation score 3, % of subjects [3, 8]: (0%)
Vesiculation score 0, % of subjects [3, 8]: (100%)
Vesiculation score 1, % of subjects [3, 8]: (0%)
Vesiculation score 2, % of subjects [3, 8]: (0%)
Vesiculation score 3, % of subjects [3, 8]: (0%)
